Data set [1] in a line: Antigen / drug loading efficiency in HDL nanodiscs (HPLC/MS). The note with it: for loading efficiency in HDL: antigen / antigen-lipid conjugate loaded into HDL nanodiscs, HPLC/MS; for drug encapsulate efficiencies: drug in HDL nanodiscs, HPLC-MS. It is filed as physicochemical. As to the method: (§1) HDL nanodisc was prepared as previously described. Briefly, DMPC was dissolved in chloroform, which was evaporated with nitrogen flow and under vacuum for at least 1 h. The resulting lipid film was hydrated in 10 mM sodium phosphate buffer and sonicated in a bath sonicator for 10 min. ApoA1 mimetic peptide 22A dissolved in endotoxin free water was added to the above mixture (22A:DMPC=1:2 weight ratio) to obtain nanodiscs. To load MOG antigen peptide in nanodiscs, each antigen peptide was reacted with 4-(4-maleimidophenyl)-butyric DOPE for 3 h in dimethylformamide (DMF), which was removed by freeze-drying after dilution 10× with endotoxin-free water. The lipid-peptide conjugates were dissolved in DMSO and added to pre-formed sHDL and incubated for 30 min at room temperature. Unreacted MOG peptides were removed by using Zeba Spin Desalting columns (Pierce) following the manufacturer's instructions. The conjugation efficiency of MOG peptide was determined by LC-MS and gel permeation chromatography (GPC). EAE was induced in female C57BL/6 mice by inoculation with 100 μg of MOG in complete Freund's adjuvant on day 0 following the administration of pertussis toxin. Mice were then injected subcutaneously at tail base for therapeutic study with sHDL-MOG, MOG or PBS on indicated days. Mice were weighed and scored daily based on the following guideline: 0, no sign of disease; 1, loss of tone in the tail; 2, hind limb paresis; 3, hind limb paralysis; 4, tetraplegia; and 5, moribund.
To produce HDL nanodiscs carrying immunomodulatory drugs, 22A, and DMPC were dissolved in acetic acid and freeze-dried overnight as shown above. Drugs (FTY720, ITE, TSA, or SAHA) were dissolved in chloroform and added to lyophilized powder, followed by drying overnight in vacuum oven. Dried samples were rehydrated by 10 mM phosphate buffer. After three heat-cooling cycles, HDL-loaded with drugs were performed. The concentration of each drug was measured by HPLC-MS as shown for FTY720, ITE, TSA, or SAHA (FIGS. 14-17, respectively). Free drugs were used to generate standard curves. […] Samples were also analyzed by dynamic light scattering (DLS) for the particle sizes. […] We also analyzed HDL-FTY720 samples using gel permeation chromatography (GPC) (FIG. 19).
We synthesized HDL nanodiscs loaded with other CD4+ T cell epitopes for validation of our approach. We have synthesized phospholipids conjugated to either Ea chain 52-68 peptide (EA, ASFEAQGALANIAVDKA (SEQ ID NO: 831)), ovalbumin-II 323-339 peptide (OVA-II, ISQAVHAAHAEINEAGR (SEQ ID NO: 832)), and type-II collagen 250-270 peptide (CIA, […] (SEQ ID NO: 833)), each modified with CSS-peptide at N-terminus. Antigen-lipid conjugates were loaded into HDL nanodiscs as described above and analyzed by HPLC/MS and DLS. EA, OVA-II, and CIA peptides were conjugated to MPB-phospholipids with ˜95% conjugation efficiency (FIGS. 22-25). Antigen-lipid conjugates were efficiently loaded into HDL nanodiscs with ˜90%, ˜84%, and ˜78% loading efficiency for EA, OVA-II, and CIA peptides, respectively (FIGS. 22-25).

The subject of data set [2] is experimental autoimmune encephalomyelitis (EAE). In words: Experimental autoimmune encephalomyelitis (EAE) mouse model, pathological score. Type of data set: in vivo, C57BL/6 mice. As for the experimental part: as §1
EAE-induced mice were administered s.c. with PBS or HDL-MOG on days 15, 22, and 29, and a subset of animals also received i.p. administration of […] to deplete Tregs at the specified time points (FIG. 13).
We examined the therapeutic potential of HDL-FTY720 in the EAE model. EAE was initiated as described above. Briefly, EAE was induced in mice as indicated above. Mice received i.p. administration of PBS or HDL-FTY720 (1 mg/kg) on days 14, 21, and 28. Mice were scored daily and assigned EAE scores as indicated above.

A short description of data set [3]: Lymph node draining / biodistribution of TMR-labelled antigen after s.c. administration. It is filed as in vivo, C57BL/6 mice. The settings on record: naive mice, after one day. As to the method: Tetramethylrhodamine (TMR, excitation/emission ˜540/560 nm) modified MOG peptide (CSSGWYRSPFSRVVHL-TMR, MOG-TMR SEQ ID NO: 829) was prepared by reacting TMR-NHS and MOG peptide according to the manufacturer's instruction. MOG-TMR was purified using HPLC and reacted with DOPE-MAL in DMF to produce DOPE-Mal-MOG-TMR (MOG-TMR). Next, the DMF solution was diluted with water, freeze-dried, dissolved in DMSO, and added to previously made HDL to produce HDL-MOG-TMR. Conjugation of MOG-TMR to DOPE-MAL and incorporation of MOG-TMR in HDL were measured by HPLC/MS, as indicated above. For the lymph node draining studies, naive female C57BL/6 mice or EAE-induced mice were administered s.c. at tail base with HDL-MOG-TMR or free MOG-TMR containing antigen peptide (100 μg per mouse) in 100 μl volume. After 24, 96, and 196 hr, animals were euthanized, organs were harvested, and TMR signal was measured with an IVIS optical imaging system (Caliper Life Sciences). Inguinal lymph nodes and spinal cord were cut into small pieces and passed through a 70-μm cell strainer, washed two times, and stained with the indicated antibodies, followed by flow cytometry analysis.

Data set [4] relates to microglia. In words: Cellular uptake by microglia (confocal microscopy). The note with it: FITC-labelled antigen. It is filed as cell-based, C57BL6/J mice. As to the method:
Mixed glial cell cultures were harvested from the cerebral cortex of newborn (P0-2) C57BL6/J mice as described previously. Cortices and brain stem were separated, and the blood vessels and meninges were carefully isolated. Then, the tissues were digested by enzymatic dissociation (0.05% trypsin-EDTA and […] DNase I), washed two times with 1% BSA in PBS. Cells were resuspended in DMEM (10% FBS, 1% penicillin/streptomycin, 0.5 mM 2-mercaptoethanol). Mixed glial cells were cultured in poly-D-lysine-coated flasks and grown at 37° C. and 5% CO2. After 10 days, microglia cells were isolated from the underlying astrocytic layer by shaking of the flask. The cell culture contained more than 95% microglial (CD11 b+, CD45+) cells as analyzed by flow cytometry.
(§2) Internalization of fluorescent HDL-MOG by BMDCs or microglia were visualized using confocal microscopy. BMDCs or microglia were seeded at 1×10^6 cells on 35 mm Petri dishes (MatTek) and incubated with the mixture of free CSS-MOG-K(FITC), or sHDL-CSS-MOG-K(FITC). Cells were then washed three times with PBS, fixed with 4% paraformaldehyde, washed, and permeabilized with 0.1% Triton-X solution. Actin filaments were stained with AlexaFluor 647-Phalloidin, MHC-II was stained with MHC-II-Texas red, and the nuclei were stained with DAPI. The samples were imaged using a 63× oil-immersion lens on a Nikon A-I spectral confocal microscope.

The subject of data set [5] is bone marrow-derived dendritic cells (BMDCs). Kind of data set: Cellular uptake by BMDCs (confocal microscopy). It is filed as cell-based, C57BL/6 mice. The note with it: FITC-labelled antigen. As to the method: To obtain bone marrow-derived dendritic cells (BMDCs), bone marrow was flushed from femurs and tibia bone of 5 to 6 weeks old C57BL/6 mice. Bone marrow cells were plated at 1×10^6 cells per dish in RPMI 1640 supplemented with 10% FBS, 55 μM β-mercaptoethanol, 5 ng/ml of GM-CSF, and 100 U/ml penicillin (BMDC media). On day three and five, one half of the culture media was replaced with fresh media. After 8 days, BMDCs were harvested and plated at 1×10^6 cells per well in 12-well plates.
as §2

A value given as a limit tells only on which side of the number the result lay.

Turning to “ISQAVHAAHAEINEAGR [OVA-II, ovalbumin-II 323-339 peptide, modified with CSS-peptide at N-terminus]”, in data set [1], the “loading efficiency in HDL” value was around 84%. On to `COC(=O)c1csc(C(=O)c2c[nH]c3ccccc23)n1` [ITE, 2-(1′H-indole-3′-carbonyl)-thiazole-4-carboxylic acid methyl ester], for which, in data set [1], the drug encapsulate efficiencies is around 95%.

Take `CCCCCCCCc1ccc(CCC(N)(CO)CO)cc1` [FTY720, Fingolimod]: the EAE score in data set [2] (FTY720 0.3 mg/Kg oral daily for 30 days starting day 30) is on record as 3; in data set [2] (FTY720 1 mg/Kg oral daily for 30 days starting day 30), 1; in data set [2] (treatment started day 15: HDL-MOG s.c. days 15, 22, 29, followed 85 days, FTY720 oral daily for 30 days), “above 2”. Also, the “day by which mice had to be euthanized after treatment stopped” value is at most 55 days in data set [2] (FTY720 oral daily for 30 days starting day 15) and at most 90 days in data set [2] (FTY720 oral daily for 30 days starting day 30).

With CSSGWYRSPFSRVVHL-TMR [MOG-TMR], the “TMR signal in inguinal dLNs” value in data set [3] is “minimal TMR signal”.

Turning to “GPKGQTGKPGIAGFKGEQGPK [CIA, type-II collagen 250-270 peptide, modified with CSS-peptide at N-terminus]”, in data set [1], the “loading efficiency in HDL” value is on record as around 78%. Regarding “ASFEAQGALANIAVDKA [Ea chain 52-68 peptide, modified with CSS-peptide at N-terminus]”, in data set [1], the “loading efficiency in HDL” value is recorded as around 90%. `O=C(CCCCCCC(=O)Nc1ccccc1)NO` [SAHA, Suberoylanilide hydroxamic acid] gave a drug encapsulate efficiencies in data set [1] of around 100%. In the case of CSS-MOG-K(FITC) [MOG-FITC], the internalization by microglia entry in data set [4] was “minimal signal”. For the same compound, in data set [5], the “internalization by BMDCs” value was “minimal signal”.

As to `CC(/C=C/C(=O)NO)=C\[C@@H](C)C(=O)c1ccc(N(C)C)cc1` [TSA, Trichostatin A], in data set [1], the drug encapsulate efficiencies is on record as around 80%.
